{"source": "patent US11739074B2", "about": "“Ras inhibitors” (Revolution Medicines, Inc., priority 2019, dated 2023)", "key": {"AsPC-1 (K-Ras G12D)": {"tested_on": "AsPC-1 (K-Ras G12D)", "experiment": "CellTiter-Glo cell viability assay, AsPC-1", "type": "cell-based", "settings": "Homo sapiens, ASPC1, 120 h, AsPC-1, K-Ras G12D, 5-day treatment; read-out: AsPC-1 Cell Viability IC50", "procedure,_shortened": "(§1)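 Luminescence from CellTiter-Glo serves as the viability read-out after cells are treated with compound for 5 days. Each well's signal is divided by the DMSO average and multiplied by 100, and curves are fitted by four-parameter logistic regression.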"}, "KRAS G13D": {"target": "KRAS G13D (Homo sapiens, UniProt P01116+P62937, G13D)", "sequence (P01116 1-169 isoform P01116-2 G13D limits assumed)": "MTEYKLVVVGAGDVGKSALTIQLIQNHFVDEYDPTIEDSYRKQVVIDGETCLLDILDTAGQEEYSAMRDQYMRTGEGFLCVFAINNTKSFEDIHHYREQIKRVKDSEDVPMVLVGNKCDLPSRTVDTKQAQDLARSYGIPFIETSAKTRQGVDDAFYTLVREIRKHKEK", "sequence (P62937 whole entry, the tested form may be a part)": "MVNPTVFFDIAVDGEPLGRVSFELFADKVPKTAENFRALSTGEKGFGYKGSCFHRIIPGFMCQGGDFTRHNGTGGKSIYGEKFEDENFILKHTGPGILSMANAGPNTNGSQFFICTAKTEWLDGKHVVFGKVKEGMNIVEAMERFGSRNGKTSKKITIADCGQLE", "experiment": "Ras-Raf disruption/FRET/MOA assay, KRAS G13D", "type": "biochemical", "settings": "disruption of BRAF RBD binding, with Cyclophilin A; read-out: KRAS G13D FRET IC50", "from_the_text": "(§2) Disruption of B-Raf Ras-Binding Domain (BRAF^RBD) Interaction with K-Ras by Compounds of the Invention (Also Called a FRET Assay or an MOA Assay)\n(§3) Note—The following protocol describes a procedure for monitoring disruption of K-Ras G12C (GMP-PNP) binding to BRAF^RBD by a compound of the invention. This protocol may also be executed substituting other Ras proteins or nucleotides, such as K-Ras G12D and K-Ras G13D.\n(§4) The purpose of this biochemical assay was to measure the ability of test compounds to facilitate ternary complex formation between a nucleotide-loaded K-Ras isoform and Cyclophilin A; the resulting ternary complex disrupts binding to a BRAF^RBD construct, inhibiting K-Ras signaling through a RAF effector.\n(§5) In assay buffer containing 25 mM HEPES pH 7.3, 0.002% Tween20, 0.1% BSA, 100 mM NaCl and 5 mM MgCl2, tagless Cyclophilin A, His6-K-Ras-GMPPNP, and GST-BRAF^RBD were combined in a 384-well assay plate at final concentrations of 25 μM, 12.5 nM, and 50 nM, respectively. Compound was present in plate wells as a 10-point 3-fold dilution series starting at a final concentration of 30 μM. After incubation at 25° C. for 3 hours, a mixture of anti-His Eu-W1024 and anti-GST allophycocyanin was then added to assay sample wells at final concentrations of 10 nM and 50 nM, respectively, and the reaction incubated for an additional 1.5 hours. […] Compounds that facilitate disruption of a K-Ras:RAF complex were identified as those eliciting a decrease in the TR-FRET ratio relative to DMSO control wells."}, "KRAS G12S": {"target": "KRAS G12S (Homo sapiens, UniProt P01116+P62937, G12S)", "sequence (P01116 1-169 isoform P01116-2 G12S limits assumed)": "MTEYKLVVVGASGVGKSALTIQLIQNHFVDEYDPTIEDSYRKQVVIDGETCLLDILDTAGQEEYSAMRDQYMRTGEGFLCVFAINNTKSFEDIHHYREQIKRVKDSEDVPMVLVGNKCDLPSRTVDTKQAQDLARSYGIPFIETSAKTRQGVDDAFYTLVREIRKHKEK", "sequence (P62937 whole entry)": "as the sequence (P62937 whole entry, the tested form may be a part) above", "experiment": "Ras-Raf disruption/FRET/MOA assay, KRAS G12S", "type": "biochemical", "settings": "disruption of BRAF RBD binding, with Cyclophilin A; read-out: KRAS G12S FRET IC50", "from_the_text": "as §2, §3, §4, §5"}, "KRAS G13C": {"target": "KRAS G13C (Homo sapiens, UniProt P01116+P62937, G13C)", "sequence (P01116 1-169 isoform P01116-2 G13C limits assumed)": "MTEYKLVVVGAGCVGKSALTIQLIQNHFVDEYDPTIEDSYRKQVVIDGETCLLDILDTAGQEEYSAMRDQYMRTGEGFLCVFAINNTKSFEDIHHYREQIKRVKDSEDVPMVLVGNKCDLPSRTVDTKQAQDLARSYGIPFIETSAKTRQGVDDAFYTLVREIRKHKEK", "sequence (P62937 whole entry)": "as the sequence (P62937 whole entry, the tested form may be a part) above", "experiment": "Ras-Raf disruption/FRET/MOA assay, KRAS G13C", "type": "biochemical", "settings": "disruption of BRAF RBD binding, with Cyclophilin A; read-out: KRAS G13C FRET IC50", "from_the_text": "as §2, §3, §4, §5"}, "KRAS G12V": {"target": "KRAS G12V (Homo sapiens, UniProt P01116+P62937, G12V)", "sequence (P01116 1-169 isoform P01116-2 G12V limits assumed)": "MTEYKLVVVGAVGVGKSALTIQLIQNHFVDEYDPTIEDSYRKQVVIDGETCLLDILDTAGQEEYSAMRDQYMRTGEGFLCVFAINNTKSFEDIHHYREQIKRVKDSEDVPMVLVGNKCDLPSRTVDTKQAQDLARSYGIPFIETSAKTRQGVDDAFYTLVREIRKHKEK", "sequence (P62937 whole entry)": "as the sequence (P62937 whole entry, the tested form may be a part) above", "experiment": "Ras-Raf disruption/FRET/MOA assay, KRAS G12V", "type": "biochemical", "settings": "disruption of BRAF RBD binding, with Cyclophilin A; read-out: KRAS G12V FRET IC50", "from_the_text": "as §2, §3, §4, §5"}, "KRAS G12D": {"target": "KRAS G12D (Homo sapiens, UniProt P01116+P62937, G12D)", "sequence (P01116 1-169 isoform P01116-2 G12D limits assumed)": "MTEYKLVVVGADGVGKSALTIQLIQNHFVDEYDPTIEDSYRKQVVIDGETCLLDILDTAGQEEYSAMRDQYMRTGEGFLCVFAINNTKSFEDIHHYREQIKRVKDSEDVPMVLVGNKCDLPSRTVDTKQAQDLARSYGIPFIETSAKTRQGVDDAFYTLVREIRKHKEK", "sequence (P62937 whole entry)": "as the sequence (P62937 whole entry, the tested form may be a part) above", "experiment": "Ras-Raf disruption/FRET/MOA assay, KRAS G12D", "type": "biochemical", "settings": "disruption of BRAF RBD binding, with Cyclophilin A; read-out: KRAS G12D FRET IC50", "from_the_text": "as §2, §3, §4, §5"}, "KRAS WT": {"target": "KRAS WT (Homo sapiens, UniProt P01116+P62937)", "sequence (P01116 1-169 isoform P01116-2 limits assumed)": "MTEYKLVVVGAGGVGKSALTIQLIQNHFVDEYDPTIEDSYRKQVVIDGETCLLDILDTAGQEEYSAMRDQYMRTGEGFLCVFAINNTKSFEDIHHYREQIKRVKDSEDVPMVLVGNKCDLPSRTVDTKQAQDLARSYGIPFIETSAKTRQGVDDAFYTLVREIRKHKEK", "sequence (P62937 whole entry)": "as the sequence (P62937 whole entry, the tested form may be a part) above", "experiment": "Ras-Raf disruption/FRET/MOA assay, KRAS WT", "type": "biochemical", "settings": "disruption of BRAF RBD binding, with Cyclophilin A; read-out: KRAS WT FRET IC50", "from_the_text": "as §2, §3, §4, §5"}, "KRAS G12C": {"target": "KRAS G12C (Homo sapiens, UniProt P01116+P62937, G12C)", "sequence (P01116 1-169 isoform P01116-2 G12C limits assumed)": "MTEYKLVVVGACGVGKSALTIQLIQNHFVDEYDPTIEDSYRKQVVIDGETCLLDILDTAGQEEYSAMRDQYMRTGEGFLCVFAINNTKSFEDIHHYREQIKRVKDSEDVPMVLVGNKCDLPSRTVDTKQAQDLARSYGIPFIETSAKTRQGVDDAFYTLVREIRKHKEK", "sequence (P62937 whole entry)": "as the sequence (P62937 whole entry, the tested form may be a part) above", "experiment": "Ras-Raf disruption/FRET/MOA assay, KRAS G12C", "type": "biochemical", "settings": "disruption of BRAF RBD binding, with Cyclophilin A; read-out: KRAS G12C FRET IC50", "from_the_text": "as §2, §3, §4, §5"}, "NRAS G12C": {"target": "T1, NRAS G12C (Homo sapiens, UniProt P01111+P62937, G12C)", "T1 construct": "His6", "T1 sequence (P01111 whole entry G12C)": "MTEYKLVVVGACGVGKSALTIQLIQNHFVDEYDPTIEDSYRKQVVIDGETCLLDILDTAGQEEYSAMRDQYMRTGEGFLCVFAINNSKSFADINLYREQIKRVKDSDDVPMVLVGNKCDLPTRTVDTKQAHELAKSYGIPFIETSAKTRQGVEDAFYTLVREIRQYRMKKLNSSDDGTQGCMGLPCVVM", "T1 sequence (P62937 whole entry)": "as the sequence (P62937 whole entry, the tested form may be a part) above", "experiment": "Ras-Raf disruption/FRET/MOA assay, NRAS G12C", "type": "biochemical", "settings": "NRAS G12C; read-out: NRAS G12C FRET data IC50", "from_the_text": "as §2, §3, §4, §5"}, "NCI-H358 (K-Ras G12C)": {"tested_on": "NCI-H358 (K-Ras G12C)", "experiment": "CellTiter-Glo cell viability assay, H358", "type": "cell-based", "settings": "Homo sapiens, NCI-H358, 120 h, NCI-H358, K-Ras G12C, 5-day treatment; read-out: H358 Cell Viability IC50", "procedure,_shortened": "as §1"}}, "data": [{"smiles": "CCn1c(-c2cnccc2COC)c2c3cc(ccc31)-c1cc(O)cc(c1)C[C@H](NC(=O)[C@H](C(C)C)N(C)C(=O)[C@H]1CCN(C(=O)N3C[C@H]3C(=O)OC)C1)C(=O)N1CCC[C@H](N1)C(=O)OCC(C)(C)C2", "note": "[Compound 111]", "values": [{"measurement": "IC50", "setting": "AsPC-1 (K-Ras G12D)", "result": "> 10", "unit": "µM"}, {"measurement": "IC50", "setting": "KRAS G13D", "result": "0.1 to 1", "unit": "µM"}, {"measurement": "IC50", "setting": "KRAS G12S", "result": "0.1 to 1", "unit": "µM"}, {"measurement": "IC50", "setting": "KRAS G13C", "result": "0.1 to 1", "unit": "µM"}, {"measurement": "IC50", "setting": "KRAS G12V", "result": "0.1 to 1", "unit": "µM"}, {"measurement": "IC50", "setting": "KRAS G12D", "result": "1 to 10", "unit": "µM"}, {"measurement": "IC50", "setting": "KRAS WT", "result": "0.1 to 1", "unit": "µM"}, {"measurement": "IC50", "setting": "KRAS G12C", "result": "0.1 to 1", "unit": "µM"}, {"measurement": "IC50", "setting": "NRAS G12C", "result": "0.1 to 1", "unit": "µM"}]}, {"smiles": "CCn1c(-c2cccnc2COC)c2c3cc(ccc31)-c1cc(O)cc(c1)C[C@H](NC(=O)[C@H](C(C)C)N(C)C(=O)CCNC1=NCCO1)C(=O)N1CCC[C@H](N1)C(=O)OCC(C)(C)C2", "note": "[Compound 27]", "values": [{"measurement": "IC50", "setting": "NCI-H358 (K-Ras G12C)", "result": "> 10", "unit": "µM"}, {"measurement": "IC50", "setting": "KRAS G12V", "result": "> 10", "unit": "µM"}]}, {"smiles": "CCn1c(-c2cnccc2COC)c2c3cc(ccc31)-c1cccc(c1)C[C@H](NC(=O)[C@H](C(C)C)N1CC[C@H](CN=C=Nc3ccc(OC)cc3)C1)C(=O)N1CCC[C@H](N1)C(=O)OCC(C)(C)C2", "note": "[Compound 81]", "values": [{"measurement": "IC50", "setting": "AsPC-1 (K-Ras G12D)", "result": "1 to 10", "unit": "µM"}, {"measurement": "IC50", "setting": "KRAS G12V", "result": "> 10", "unit": "µM"}]}, {"smiles": "CCn1c(-c2cccnc2COC)c2c3cc(ccc31)-c1cc(O)cc(c1)C[C@H](NC(=O)[C@H](C(C)C)N(C)C(=O)CNC1=NCCO1)C(=O)N1CCC[C@H](N1)C(=O)OCC(C)(C)C2", "note": "[Compound 28]", "values": [{"measurement": "IC50", "setting": "NCI-H358 (K-Ras G12C)", "result": "> 10", "unit": "µM"}, {"measurement": "IC50", "setting": "AsPC-1 (K-Ras G12D)", "result": "> 10", "unit": "µM"}, {"measurement": "IC50", "setting": "KRAS G12V", "result": "> 10", "unit": "µM"}]}, {"smiles": "CCn1c(-c2cnccc2COC)c2c3cc(ccc31)-c1cccc(c1)C[C@H](NC(=O)[C@H](C(C)C)N(C)C(=O)CCN=C=Nc1ccccc1COC)C(=O)N1CCC[C@H](N1)C(=O)OCC(C)(C)C2", "note": "[Compound 63]", "values": [{"measurement": "IC50", "setting": "NCI-H358 (K-Ras G12C)", "result": "0.1 to 1", "unit": "µM"}, {"measurement": "IC50", "setting": "AsPC-1 (K-Ras G12D)", "result": "1 to 10", "unit": "µM"}, {"measurement": "IC50", "setting": "KRAS G12V", "result": "> 10", "unit": "µM"}]}, {"smiles": "CCCN=C=NCCC(=O)N(C)[C@H](C(=O)N[C@H]1Cc2cccc(c2)-c2ccc3c(c2)c(c(-c2cnccc2COC)n3CC)CC(C)(C)COC(=O)[C@@H]2CCCN(N2)C1=O)C(C)C", "note": "[22 A and B]", "values": [{"measurement": "IC50", "setting": "NCI-H358 (K-Ras G12C)", "result": "1 to 10", "unit": "µM"}, {"measurement": "IC50", "setting": "AsPC-1 (K-Ras G12D)", "result": "1 to 10", "unit": "µM"}, {"measurement": "IC50", "setting": "KRAS G12D", "result": "1 to 10", "unit": "µM"}]}, {"smiles": "CCn1c(-c2cnccc2COC)c2c3cc(ccc31)-c1cccc(c1)C[C@H](NC(=O)[C@H](C(C)C)N(C)C(=O)CCCN=C=NCCCOC)C(=O)N1CCC[C@H](N1)C(=O)OCC(C)(C)C2", "note": "[69 A and B]", "values": [{"measurement": "IC50", "setting": "NCI-H358 (K-Ras G12C)", "result": "1 to 10", "unit": "µM"}, {"measurement": "IC50", "setting": "AsPC-1 (K-Ras G12D)", "result": "1 to 10", "unit": "µM"}, {"measurement": "IC50", "setting": "KRAS G12V", "result": "> 10", "unit": "µM"}]}, {"smiles": "CCn1c(-c2cnccc2COC)c2c3cc(ccc31)-c1cc(O)cc(c1)C[C@H](NC(=O)[C@@H](CN(C)C(=O)[C@@H]1CN1)C(C)C)C(=O)N1CCC[C@H](N1)C(=O)OCC(C)(C)C2", "note": "[Compound 60]", "values": [{"measurement": "IC50", "setting": "NCI-H358 (K-Ras G12C)", "result": "1 to 10", "unit": "µM"}, {"measurement": "IC50", "setting": "AsPC-1 (K-Ras G12D)", "result": "1 to 10", "unit": "µM"}, {"measurement": "IC50", "setting": "KRAS G12V", "result": "> 10", "unit": "µM"}, {"measurement": "IC50", "setting": "KRAS G12C", "result": "> 10", "unit": "µM"}]}, {"smiles": "CCn1c(-c2cccnc2[C@H](C)OC)c2c3cc(ccc31)-c1cc(O)cc(c1)C[C@H](NC(=O)[C@H](C(C)C)N(C)C(=O)C1CC3(C1)CN(C(=O)[C@H]1CN1)C3)C(=O)N1CCC[C@H](N1)C(=O)OCC(C)(C)C2", "note": "[Compound 181]", "values": [{"measurement": "IC50", "setting": "AsPC-1 (K-Ras G12D)", "result": "> 10", "unit": "µM"}, {"measurement": "IC50", "setting": "KRAS G12D", "result": "0.1 to 1", "unit": "µM"}]}]}
